From the NIST ThermoML archive (doi:10.1021/je800751m)
Numbers after ± are expanded uncertainties.

Test: excess molar enthalpy (molar enthalpy of mixing); xn = mol fraction of the nth substance listed
Settings: 298.15 K, 101 kPa, Liquid, Flow calorimetry

**Q.** With `C1CCCCC1` [cyclohexane] + CCCCO as the compound, how does the excess molar enthalpy (x1 = 0.0503) read?
**A.** 0.0163 ± 0.000669 kcal/mol

**Q.** What about the excess molar enthalpy (x1 = 0.0998) of the same compound?
**A.** 0.0346 ± 0.000717 kcal/mol

**Q.** What about the excess molar enthalpy (x1 = 0.1502) of the same compound?
**A.** 0.052 ± 0.000789 kcal/mol

**Q.** And the excess molar enthalpy (x1 = 0.1998)?
**A.** 0.0685 ± 0.000884 kcal/mol

**Q.** What about the excess molar enthalpy (x1 = 0.2502) of the same compound?
**A.** 0.0836 ± 0.000956 kcal/mol

**Q.** What about the excess molar enthalpy (x1 = 0.2997) of the same compound?
**A.** 0.0974 ± 0.00103 kcal/mol

**Q.** What about the excess molar enthalpy (x1 = 0.35) of the same compound?
**A.** 0.1103 ± 0.0011 kcal/mol

**Q.** And the excess molar enthalpy (x1 = 0.4002)?
**A.** 0.122 ± 0.00117 kcal/mol

**Q.** And the excess molar enthalpy (x1 = 0.4503)?
**A.** 0.1321 ± 0.00124 kcal/mol

**Q.** And the excess molar enthalpy (x1 = 0.5003)?
**A.** 0.1404 ± 0.00129 kcal/mol

**Q.** And the excess molar enthalpy (x1 = 0.5501)?
**A.** 0.1466 ± 0.00134 kcal/mol

**Q.** And the excess molar enthalpy (x1 = 0.5997)?
**A.** 0.1505 ± 0.00136 kcal/mol

**Q.** What about the excess molar enthalpy (x1 = 0.6501) of the same compound?
**A.** 0.1517 ± 0.00136 kcal/mol

**Q.** What about the excess molar enthalpy (x1 = 0.7002) of the same compound?
**A.** 0.1498 ± 0.00134 kcal/mol

**Q.** What about the excess molar enthalpy (x1 = 0.7501) of the same compound?
**A.** 0.1445 ± 0.00131 kcal/mol

**Q.** What about the excess molar enthalpy (x1 = 0.7996) of the same compound?
**A.** 0.1355 ± 0.00129 kcal/mol

**Q.** What about the excess molar enthalpy (x1 = 0.85) of the same compound?
**A.** 0.123 ± 0.00124 kcal/mol

**Q.** What about the excess molar enthalpy (x1 = 0.9) of the same compound?
**A.** 0.105 ± 0.00122 kcal/mol

**Q.** What about the excess molar enthalpy (x1 = 0.9496) of the same compound?
**A.** 0.0799 ± 0.00115 kcal/mol
